{"source": "ChEMBL document CHEMBL5325502", "about": "“Discovery of 2,4-diphenyl-substituted thiazole derivatives as PRMT1 inhibitors and investigation of their anti-cervical cancer effects” (Bioorg Med Chem, 2023)", "key": {"[1]": {"molecular_target": "T1, Protein arginine N-methyltransferase 1 (Homo sapiens, UniProt Q99873)", "assay": "Displacement of [3H]SAM from PRMT1 (unknown origin) at 10 uM preincubated for 15 mins followed by [3H]SAM addition measured after 60 mins by radiometric/luminescence based assay relative to control", "conditions": "time 75.0 min"}, "HeLa [2]": {"test_system": "HeLa", "assay": "Antiproliferative activity against human HeLa cells incubated for 48 hrs by CCK8 assay", "assay_type": "functional, cell-based"}, "HepG2": {"test_system": "HepG2", "assay": "Antiproliferative activity against human HepG2 cells incubated for 48 hrs by CCK8 assay", "assay_type": "functional, cell-based", "conditions": "HepG2, 48 h"}, "[3]": {"molecular_target": "T1, Protein arginine N-methyltransferase 1", "assay": "Displacement of [3H]SAM from PRMT1 (unknown origin) preincubated for 15 mins followed by [3H]SAM addition measured after 60 mins by radiometric/luminescence based assay"}, "[4]": {"molecular_target": "Protein arginine N-methyltransferase 5 (Homo sapiens) (UniProt O14744)", "sequence (O14744 whole entry)": "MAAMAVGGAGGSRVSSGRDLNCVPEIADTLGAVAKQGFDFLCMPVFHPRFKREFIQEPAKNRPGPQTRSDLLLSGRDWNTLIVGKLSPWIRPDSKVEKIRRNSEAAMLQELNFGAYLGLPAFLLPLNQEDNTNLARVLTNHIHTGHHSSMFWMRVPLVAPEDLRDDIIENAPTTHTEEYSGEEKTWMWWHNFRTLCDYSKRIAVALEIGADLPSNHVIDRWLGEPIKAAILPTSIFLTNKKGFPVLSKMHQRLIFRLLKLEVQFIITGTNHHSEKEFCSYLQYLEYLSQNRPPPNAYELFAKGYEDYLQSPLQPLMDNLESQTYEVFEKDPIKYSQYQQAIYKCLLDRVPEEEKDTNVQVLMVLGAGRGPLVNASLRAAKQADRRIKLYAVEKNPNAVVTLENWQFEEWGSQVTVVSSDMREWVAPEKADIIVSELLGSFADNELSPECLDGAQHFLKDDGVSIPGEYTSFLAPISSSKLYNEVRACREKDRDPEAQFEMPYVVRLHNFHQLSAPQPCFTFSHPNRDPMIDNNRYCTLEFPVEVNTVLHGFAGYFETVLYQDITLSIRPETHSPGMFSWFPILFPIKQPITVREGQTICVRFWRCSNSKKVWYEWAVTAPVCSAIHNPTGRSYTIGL", "assay": "Inhibition of PRMT5 (unknown origin) using SAM as substrate incubated for 60 mins by chemiluminescence based assay"}, "MDA-MB-231": {"test_system": "MDA-MB-231", "assay": "Antiproliferative activity against human MDA-MB-231 cells incubated for 48 hrs by CCK8 assay", "assay_type": "functional, cell-based", "conditions": "MDA-MB-231, 48 h"}, "A549": {"test_system": "A549", "assay": "Antiproliferative activity against human A549 cells incubated for 48 hrs by CCK8 assay", "assay_type": "functional, cell-based", "conditions": "A549, 48 h"}, "HeLa [5]": {"test_system": "HeLa", "assay": "Induction of apoptosis in human HeLa cells assessed as viable cells at 32 uM incubated for 24 hrs by flow cytometry (reference value: 66.3 %)", "assay_type": "functional", "conditions": "read-out: Activity"}, "HeLa [6]": {"test_system": "HeLa", "assay": "Induction of apoptosis in human HeLa cells assessed as viable cells at 8 uM incubated for 24 hrs by flow cytometry (reference value: 66.3 %)", "assay_type": "functional", "conditions": "read-out: Activity"}, "HeLa [7]": {"test_system": "HeLa", "assay": "Induction of early apoptosis in human HeLa cells assessed as reduction in number of cells incubated for 24 hrs by hoechst staining based analysis", "assay_type": "functional, cell-based", "conditions": "dose <= 32.0 µM"}, "HeLa [8]": {"test_system": "HeLa", "assay": "Induction of apoptosis in human HeLa cells assessed as late apoptotic cells at 8 uM incubated for 24 hrs by flow cytometry (reference value: 4.37 %)", "assay_type": "functional"}, "HeLa [9]": {"test_system": "HeLa", "assay": "Induction of apoptosis in human HeLa cells assessed as viable cells at 16 uM incubated for 24 hrs by flow cytometry (reference value: 66.3 %)", "assay_type": "functional", "conditions": "read-out: Activity"}, "HeLa [10]": {"test_system": "HeLa", "assay": "Induction of apoptosis in human HeLa cells assessed as early apoptotic cells at 8 uM incubated for 24 hrs by flow cytometry (reference value: 28.2 %)", "assay_type": "functional"}, "HeLa [11]": {"test_system": "HeLa", "assay": "Downregulation of ADMA expression in human HeLa cells incubated for 48 hrs by Western blot analysis", "assay_type": "functional, cell-based", "conditions": "dose 2-8 µM"}, "HeLa [12]": {"test_system": "HeLa", "assay": "Induction of early apoptosis in human HeLa cells assessed as dense nuclei incubated for 24 hrs by hoechst staining based analysis", "assay_type": "functional, cell-based", "conditions": "dose <= 32.0 µM"}, "HeLa [13]": {"test_system": "HeLa", "assay": "Inhibition of cell migration in human HeLa cells incubated upto 48 hrs by scratch wound healing assay", "assay_type": "functional, cell-based", "conditions": "dose 2-8 µM"}, "HeLa [14]": {"test_system": "HeLa", "assay": "Inhibition of cell migration in human HeLa cells incubated at 24 hrs by crystal violet staining based transwell assay", "assay_type": "functional", "conditions": "dose 2-8 µM"}, "HeLa [15]": {"test_system": "HeLa", "assay": "Induction of apoptosis in human HeLa cells assessed as early apoptotic cells at 16 uM incubated for 24 hrs by flow cytometry (reference value: 28.2 %)", "assay_type": "functional"}, "HeLa [16]": {"test_system": "HeLa", "assay": "Induction of apoptosis in human HeLa cells assessed as necrotic cells at 32 uM incubated for 24 hrs by flow cytometry (reference value: 1.10 %)", "assay_type": "functional"}, "HeLa [17]": {"test_system": "HeLa", "assay": "Induction of early apoptosis in human HeLa cells assessed as nuclear fragmentation incubated for 24 hrs by hoechst staining based analysis", "assay_type": "functional, cell-based", "conditions": "dose <= 32.0 µM"}, "HeLa [18]": {"test_system": "HeLa", "assay": "Induction of apoptosis in human HeLa cells assessed as necrotic cells at 8 uM incubated for 24 hrs by flow cytometry (reference value: 1.10 %)", "assay_type": "functional"}, "HeLa [19]": {"test_system": "HeLa", "assay": "Induction of apoptosis in human HeLa cells assessed as early apoptotic cells at 32 uM incubated for 24 hrs by flow cytometry (reference value: 28.2 %)", "assay_type": "functional"}, "HeLa [20]": {"test_system": "HeLa", "assay": "Induction of apoptosis in human HeLa cells assessed as necrotic cells at 16 uM incubated for 24 hrs by flow cytometry (reference value: 1.10 %)", "assay_type": "functional"}, "HeLa [21]": {"test_system": "HeLa", "assay": "Induction of apoptosis in human HeLa cells assessed as late apoptotic cells at 32 uM incubated for 24 hrs by flow cytometry (reference value: 4.37 %)", "assay_type": "functional"}, "HeLa [22]": {"test_system": "HeLa", "assay": "Effect on PRMT1 expression in human HeLa cells at 2 to 8 uM incubated for 48 hrs by Western blot analysis", "assay_type": "functional, cell-based", "conditions": "dose 2-8 µM"}, "HeLa [23]": {"test_system": "HeLa", "assay": "Effect on SDMA expression in human HeLa cells at 2 to 8 uM incubated for 48 hrs by Western blot analysis", "assay_type": "functional, cell-based", "conditions": "dose 2-8 µM"}, "HeLa [24]": {"test_system": "HeLa", "assay": "Downregulation of DDAH expression in human HeLa cells at 2 to 8 uM incubated for 48 hrs by Western blot analysis", "assay_type": "functional, cell-based", "conditions": "dose 2-8 µM"}, "HeLa [25]": {"test_system": "HeLa", "assay": "Downregulation of MMP2 expression in human HeLa cells incubated for 48 hrs by Western blot analysis", "assay_type": "functional, cell-based", "conditions": "dose 2-8 µM"}, "HeLa [26]": {"test_system": "HeLa", "assay": "Induction of apoptosis in human HeLa cells assessed as late apoptotic cells at 16 uM incubated for 24 hrs by flow cytometry (reference value: 4.37 %)", "assay_type": "functional"}, "HeLa [27]": {"test_system": "HeLa", "assay": "Induction of early apoptosis in human HeLa cells assessed as nuclear edge fusion incubated for 24 hrs by hoechst staining based analysis", "assay_type": "functional, cell-based", "conditions": "dose <= 32.0 µM"}, "HeLa [28]": {"test_system": "HeLa", "assay": "Downregulation of pro-caspase 9 expression in human HeLa cells incubated for 48 hrs by Western blot analysis", "assay_type": "functional, cell-based", "conditions": "dose 2-8 µM"}, "HeLa [29]": {"test_system": "HeLa", "assay": "Downregulation of N-Cadherin expression in human HeLa cells incubated for 48 hrs by Western blot analysis", "assay_type": "functional, cell-based", "conditions": "dose 2-8 µM"}}, "note": "The source made the active and inactive calls. No cut-off for these calls is given here."}
{"smiles": "CNCCN(C)Cc1sc(-c2ccc(OC(F)(F)F)cc2)nc1-c1cccc(OC)c1", "values": [{"measurement": "inhibition", "setting": "[1]", "value": 35, "unit": "%"}]}
{"smiles": "CNCCN(C)Cc1sc(-c2cccc(N3CCOCC3)c2)nc1-c1ccc(OC)cc1", "values": [{"measurement": "inhibition", "setting": "[1]", "value": 30, "unit": "%"}]}
{"smiles": "CNCCN(C)Cc1sc(-c2ccc(N3CCOCC3)cc2)nc1-c1ccc(OC)cc1", "values": [{"measurement": "IC50", "setting": "HeLa [2]", "value": 19.4, "unit": "µM"}, {"measurement": "IC50", "setting": "HepG2", "value": 20, "unit": "µM"}, {"measurement": "IC50", "setting": "[3]", "value": 7.07, "unit": "µM"}, {"measurement": "inhibition", "setting": "[4]", "value": 6, "unit": "%"}, {"measurement": "inhibition", "setting": "[1]", "value": 56, "unit": "%"}, {"measurement": "IC50", "setting": "MDA-MB-231", "value": 31.4, "unit": "µM"}, {"measurement": "IC50", "setting": "A549", "value": 33.9, "unit": "µM"}]}
{"smiles": "CNCCNCc1sc(-c2ccc(OC)cc2)nc1-c1ccc(OC)cc1", "values": [{"measurement": "inhibition", "setting": "[1]", "value": 7, "unit": "%"}]}
{"smiles": "CNCCN(C)Cc1sc(-c2ccc(OC(F)(F)F)cc2)nc1-c1ccc(OC)cc1", "values": [{"measurement": "inhibition", "setting": "[1]", "value": 39, "unit": "%"}]}
{"smiles": "CNCCN(C)Cc1sc(-c2cccc(OC(F)(F)F)c2)nc1-c1cccc(OC)c1", "values": [{"measurement": "inhibition", "setting": "[1]", "value": 31, "unit": "%"}]}
{"smiles": "CNCCN(C)Cc1sc(-c2cccc(OC)c2)nc1-c1ccc(OC)cc1", "values": [{"measurement": "inhibition", "setting": "[1]", "value": 43, "unit": "%"}]}
{"smiles": "CNCCN(C)Cc1sc(-c2cccc(OC(F)(F)F)c2)nc1-c1ccc(OC)cc1", "values": [{"measurement": "inhibition", "setting": "[1]", "value": 21, "unit": "%"}]}
{"smiles": "N=C(N)c1ccc(-c2ccc(-c3ccc(C(=N)N)cc3)o2)cc1", "values": [{"measurement": "inhibition", "setting": "[1]", "value": 98.1, "unit": "%"}]}
{"smiles": "CNCCN(C)Cc1sc(-c2ccc(OC)cc2)nc1-c1ccc(OC)cc1.Cl", "values": [{"measurement": "viability at 32 µM", "setting": "HeLa [5]", "value": 11.3, "unit": "%"}, {"measurement": "viability at 8 µM", "setting": "HeLa [6]", "value": 56.2, "unit": "%"}, {"measurement": "IC50", "setting": "HeLa [2]", "value": 9.43, "unit": "µM"}, {"measurement": "Activity", "setting": "HeLa [7]", "value": "Dose-Dependent Effect"}, {"measurement": "Activity", "setting": "HeLa [8]", "value": 6.65, "unit": "%"}, {"measurement": "viability at 16 µM", "setting": "HeLa [9]", "value": 29.3, "unit": "%"}, {"measurement": "Activity", "setting": "HeLa [10]", "value": 35.9, "unit": "%"}, {"measurement": "Activity", "setting": "HeLa [11]", "value": "Dose-Dependent Effect"}, {"measurement": "Activity", "setting": "HeLa [12]", "value": "Dose-Dependent Effect"}, {"measurement": "inhibition", "setting": "HeLa [13]", "value": "Dose-Dependent Effect"}, {"measurement": "inhibition", "setting": "HeLa [14]", "value": "Dose-Dependent Effect"}, {"measurement": "Activity", "setting": "HeLa [15]", "value": 51.9, "unit": "%"}, {"measurement": "Activity", "setting": "HeLa [16]", "value": 0.97, "unit": "%"}, {"measurement": "Activity", "setting": "HeLa [17]", "value": "Dose-Dependent Effect"}, {"measurement": "Activity", "setting": "HeLa [18]", "value": 1.33, "unit": "%"}, {"measurement": "IC50", "setting": "HepG2", "value": 16, "unit": "µM"}, {"measurement": "Activity", "setting": "HeLa [19]", "value": 64.8, "unit": "%"}, {"measurement": "Activity", "setting": "HeLa [20]", "value": 1.33, "unit": "%"}, {"measurement": "Activity", "setting": "HeLa [21]", "value": 22.9, "unit": "%"}, {"measurement": "IC50", "setting": "[3]", "value": 11.8, "unit": "µM"}, {"measurement": "inhibition", "setting": "[4]", "value": 2.52, "unit": "%"}, {"measurement": "Activity", "setting": "HeLa [22]", "value": "inactive"}, {"measurement": "Activity", "setting": "HeLa [23]", "value": "inactive"}, {"measurement": "inhibition", "setting": "[1]", "value": 60, "unit": "%"}, {"measurement": "Activity", "setting": "HeLa [24]", "value": "Active"}, {"measurement": "IC50", "setting": "MDA-MB-231", "value": 16.9, "unit": "µM"}, {"measurement": "Activity", "setting": "HeLa [25]", "value": "Dose-Dependent Effect"}, {"measurement": "Activity", "setting": "HeLa [26]", "value": 17.5, "unit": "%"}, {"measurement": "IC50", "setting": "A549", "value": 18.4, "unit": "µM"}, {"measurement": "Activity", "setting": "HeLa [27]", "value": "Dose-Dependent Effect"}, {"measurement": "Activity", "setting": "HeLa [28]", "value": "Active"}, {"measurement": "Activity", "setting": "HeLa [29]", "value": "Dose-Dependent Effect"}]}
